Here are results for five molecules from US4681871A, “Pharmacologically active peptides” (priority 1979, dated 1987).

In series [1] the test system is longitudinal muscle plexusmyentericus preparation of guinea pig ileum. The series can be described thus: opiate-like activity on electrically stimulated guinea pig ileum preparation. It is filed as cell-based. The settings on record: guinea pig intestine preparation; naloxon-reversible restriction of contractions.
Series [2] relates to Pronase E (Merck). The series can be described thus: resistance against proteases (Pronase E incubation, then opiate test). The class given is in vitro ADME. As to conditions: 0.02 mg Pronase E, tris-buffer pH 8, 37° C., 1 to 4 hours; compared with control without enzyme. The method, then: As proof of the resistance against proteases we would like to cite an example: 0.3 mg β-casomorphin-7 was incubated in 0.6 ml tris-buffer pH 8 with 0.02 mg Pronase E (Merck) at 37° C. for 1 to 4 hours. After the end of the incubation, the mixture, for the purpose of destroying the Pronase, was heated at 95° C. for 15 minutes.

Ends that are not written are not given here. Peptide text beside a SMILES is read from it.

Take `COC(=O)CNC(=O)[C@@H]1CCCN1C(=O)[C@H](Cc1ccccc1)NC(=O)[C@@H]1CCCN1C(=O)[C@@H](N)Cc1ccc(O)cc1` [Tyr-Pro-Phe-Pro-Gly-methyl ester] (H-YPFPG-OMe): in series [1], the opiate-like activity result is “strong specific opiate-like activity”.

As for `COC(=O)CNC(=O)[C@@H]1CCCN1C(=O)[C@H](Cc1ccccc1)NC(=O)[C@@H]1CCCN1` [end product 4b, Pro-Phe-Pro-Gly-metester] (H-PFPG-OMe), the opiate-like activity result in series [1] is recorded as “did not result in any opiate-like activity”.

As for “YPFPGPI [β-casomorphin-7, Tyr-Pro-Phe-Pro-Gly-Pro-Ile]”, the “loss of opiate activity after protease incubation” value in series [2] is on record as “did not result in any loss of opiate activity”.

For the molecule casein, the opiate-like activity result in series [1] is on record as “neither the casein itself nor its chloroform/methanol (65/35, vol/vol) extracts, shows a pharmacological, in this case an opiate-like, activity”.

“methionine-enkephalin [reference compound]”: the “loss of opiate activity after protease incubation” value in series [2] is “completely lost the opiate activity”.
